Calls of active or inactive are those of the source.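 How the source made its calls: active means Fitted curve of melting temperature shift crosses the 1.0 threshold at or below the sample's highest valid tested concentration; inconclusive means Flat fit with activity 30 to 70, or invalid fit; inactive means Opposite direction, flat within 30, or no crossing.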 Where only a bound is given, the exact number is not on record here.

The target of this assay is Fibroblast growth factor 22 (Homo sapiens) (UniProt Q9HCT0). The experiment in a line: FGF22 ligand-induced thermal stabilization – biophysical, thermal shift, cherry-pick, FGF22 synaptogenesis inhibitor project, dose response (AID 687022). The following applies: recombinant FGF22 thermal shift, SYPRO orange melting.
Chain of Fibroblast growth factor 22 (Homo sapiens) (Q9HCT0 whole entry, looked up): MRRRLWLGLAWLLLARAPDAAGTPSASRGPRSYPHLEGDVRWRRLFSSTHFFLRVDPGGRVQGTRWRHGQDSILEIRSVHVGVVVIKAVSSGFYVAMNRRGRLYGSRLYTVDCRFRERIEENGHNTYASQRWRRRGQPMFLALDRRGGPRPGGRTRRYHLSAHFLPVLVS

As to `S=c1[nH]c2cc3ccccc3cc2[nH]1`, the AbsAC1 (concentration giving Tm-shift threshold 1.0) is 10.7 µM.
As to `O=c1c2ccccc2[nH]c2ccc(F)cc12`, the AbsAC1 (concentration giving Tm-shift threshold 1.0) is > 38 µM (inactive).
Under `O=C(Nc1ccc(S(=O)(=O)NCc2ccccc2)cc1)c1ccccc1[N+](=O)[O-]` stands 12 µM; under `Cc1cccc(NC(=O)c2ccc(-c3ccccc3[N+](=O)[O-])o2)c1`, > 38 µM (inactive).
The value for `COc1ccc(CN2C(=O)N(c3ccc(OC)cc3)C(=O)C2CC(=O)Nc2ccccc2)cc1` (centres undefined) was 6.06 µM.
The value for `Cc1ccccc1-n1c(O)c(/C=N/NC(=O)c2ccccc2O)c(=O)[nH]c1=S` was 3.51 µM.
Turning to `CN1C(=O)c2cc(NC(=O)c3cccc(F)c3)ccc2OC[C@@H]2O[C@H](CC(=O)NCC3CCCCC3)CC[C@@H]21`, the AbsAC1 (concentration giving Tm-shift threshold 1.0) was 16.8 µM.
As to `O=C(Nc1ccc(F)cc1)N[C@@H]1CC[C@H](CCn2cc(-c3ccc(F)cc3)nn2)O[C@H]1CO`, the AbsAC1 (concentration giving Tm-shift threshold 1.0) was 13 µM.
Under `COc1c(O)ccc(/C=C(\C#N)c2nc3ccccc3[nH]2)c1[N+](=O)[O-]` stands 7.61 µM; under `CC(C)(C)c1ccc(C2CC2C(=O)N/N=C\c2ccc[nH]2)cc1` (centres undefined), 14.3 µM; under `CC(C)n1c(=O)c2ccccc2n1Cc1cn(-c2ccc(Cl)cc2)nn1`, 3.24 µM.
The value for `O=C(Cc1c[nH]c2ccccc12)N1CCN(S(=O)(=O)c2cccc(Cl)c2Cl)CC1` was 13.4 µM; that for `C[C@H](CO)N1C[C@H](C)[C@@H](CN(C)Cc2ccc(C(=O)O)cc2)Oc2cc(/C=C/c3ccccc3)ccc2S1(=O)=O` was > 42 µM (inactive); that for `O=C(CC1SC(=O)NC1=O)Nc1ccc(Cl)cc1` (centres undefined) was 3.11 µM.
Under `CCOC(=O)C(c1c(O)c2ccccc2oc1=O)c1c(O)c2ccccc2oc1=O` stands > 5 µM (inactive); under `O=c1ccc2nc3ccccc3sc-2c1`, 8.27 µM.
Take `CCc1nnc(NS(=O)(=O)c2ccc(NC(=S)NC(=O)/C=C/c3ccc([N+](=O)[O-])cc3)cc2)s1`: the AbsAC1 (concentration giving Tm-shift threshold 1.0) was 4.73 µM.
`O=C(Nc1ccc(S(=O)(=O)N2CCCC2)cc1)c1cccs1`: the AbsAC1 (concentration giving Tm-shift threshold 1.0) was 9.33 µM.
Under `CO[C@@H](CN(C)S(=O)(=O)c1ccc(Cl)cc1)[C@@H](C)CN([C@H](C)CO)S(=O)(=O)c1cccc(Cl)c1` stands 10.7 µM; under `Cc1ccc(Cl)cc1N1CCN(C(=O)Cc2c(C(=O)O)[nH]c3ccc(Cl)cc23)CC1`, 4.47 µM; under `Cc1cccc(OC(C)C(=O)Nc2ccc3c(c2)OCCO3)c1` (centres undefined), 15.1 µM.
The value for `O=C(O)Cn1cc(/C=N/NC(=O)c2cc3cc(Br)ccc3o2)c2ccccc21` was 6.74 µM.
The value for `CCOc1ccc(NS(=O)(=O)c2ccc(C(=O)NNC(=O)c3ccccc3O)cc2)cc1` was > 38 µM (inactive); that for `CCOc1cc(C=NNC(=O)c2cccc(S(=O)(=O)N3CCCC3)c2)ccc1O` was 6.84 µM; that for `CSc1ccc(/C=N/NC(=O)c2ccc3nc[nH]c3c2)cc1` was 1.58 µM.
Consider `COc1ccc(/C=N/NC(=O)c2cc(-c3ccc4c(c3)OCO4)n[nH]2)cc1OC`, for which the AbsAC1 (concentration giving Tm-shift threshold 1.0) is 18.1 µM.
The value for `O=C(N/N=C\c1c[nH]c2ccccc12)c1ccc(O)cc1` was 1.85 µM.
As for `O=C(CN1C(=O)NC(Cc2c[nH]c3ccccc23)C1=O)Nc1ccc(Br)cc1F` (centres undefined), the AbsAC1 (concentration giving Tm-shift threshold 1.0) is 4.93 µM.
Under `O=C(Nc1cccc(C(F)(F)F)c1)c1cccc(NS(=O)(=O)c2ccc(O)c(C(=O)O)c2)c1` stands 2.6 µM; under `Clc1ccc(Nc2ccc(NCc3ccccc3)nn2)cc1`, 2.73 µM.
Take `COc1cc(NC(=O)c2csc(N)n2)cc(C(=O)Nc2cccc(C(F)(F)F)c2)c1`: the AbsAC1 (concentration giving Tm-shift threshold 1.0) is 10.3 µM.
Under `Cc1ccc(NC(=O)c2sc3ncn(CC(=O)N4CCN(c5ccccn5)CC4)c(=O)c3c2C)cc1F` stands 10.6 µM; under `COc1ccc2cc(CCNC(=O)c3cc4ccccc4o3)c(=O)[nH]c2c1`, 11.3 µM; under `C[C@H](CO)N1C[C@H](C)[C@H](CN(C)C(=O)Nc2ccc(C(F)(F)F)cc2)Oc2cc(-c3ccncc3)ccc2S1(=O)=O`, 10.3 µM.
The value for `Cc1cc(C)cc(NS(=O)(=O)c2cc3[nH]c(=O)c(=O)[nH]c3cc2C)c1` was 10.2 µM.
Under `COc1ccccc1NC(=O)N[C@@H]1CC[C@H](CCn2cc(-c3ccccc3OC)nn2)O[C@@H]1CO` stands 32 µM.
Regarding `Oc1ccc(-c2nnc(Nc3cccc(O)c3)c3ccccc23)cc1`, the AbsAC1 (concentration giving Tm-shift threshold 1.0) is 5.28 µM.
As for `COc1ccc(S(=O)(=O)Nc2ccc(NC(C)=O)cc2)cc1Cl`, the AbsAC1 (concentration giving Tm-shift threshold 1.0) was 26.6 µM.
Consider `CSc1nc2nc(Cl)c(Cl)nc2[nH]1`, for which the AbsAC1 (concentration giving Tm-shift threshold 1.0) was > 38 µM (inactive).
As for `O=C(CN(Cc1ccccc1)S(=O)(=O)c1ccccc1)N/N=C/c1ccccc1C(=O)O`, the AbsAC1 (concentration giving Tm-shift threshold 1.0) was 18.9 µM.
The value for `CCOc1ccc(NC(=O)CC2C(=O)N(c3ccc(OC)cc3)C(=S)N2Cc2ccccn2)cc1` (centres undefined) was 3.11 µM; that for `COc1ccc(Nc2nc3ccc(OC)cc3s2)cc1` was 2.95 µM; that for `CNC(=S)N(Cc1ccc(OC)cc1)C1CC(=O)N(c2ccc(C(=O)OC)cc2)C1=O` (centres undefined) was 3.43 µM.
The value for `CCN1C(=O)C(CC(=O)Nc2ccc(OC)cc2)N(Cc2ccc3c(c2)OCO3)C1=S` (centres undefined) was 4.05 µM.
Under `COC(=O)CN1C(=S)N(c2ccc(Cl)cc2)C(=O)C1CC(=O)Nc1ccc(F)cc1` (centres undefined) stands 6.03 µM; under `CC(=O)c1ccc(NC(=O)Nc2cccnc2)cc1`, 7.05 µM; under `O=C(NC1CC1)c1cccc(NC(=O)c2cnn(-c3ccccc3)n2)c1`, 11.7 µM.
Turning to `C/C=C/c1ccc2c(c1)O[C@@H](CN(C)C(=O)Nc1cc(F)ccc1F)[C@@H](C)CN([C@H](C)CO)S2(=O)=O`, the AbsAC1 (concentration giving Tm-shift threshold 1.0) is 20.6 µM.
Turning to `COc1ccc(-c2ccc([C@H]3[C@@H](CO)N4CCCCN(C(=O)c5ccc6c(c5)OCO6)C[C@H]34)cc2)cc1`, the AbsAC1 (concentration giving Tm-shift threshold 1.0) was 15.2 µM.
In the case of `COc1cc(NC(=O)c2ccc3c(c2)OCCO3)ccc1NC(=O)c1cccs1`, the AbsAC1 (concentration giving Tm-shift threshold 1.0) was 3.85 µM.
The value for `O=[N+]([O-])c1ccc(N/N=C/c2ccc[nH]2)cc1` was 8.39 µM; that for `O=C(COc1ccc([N+](=O)[O-])cc1)Nc1cccc(C(=O)Nc2ccccc2C(=O)O)c1` was 3.74 µM; that for `O=c1oc(-c2ccc(O)c(O)c2)cc2cc(O)cc(O)c12` was 4.66 µM.
As to `O=C(N/N=C/c1ccc(Cl)cc1)c1ccc2nc[nH]c2c1`, the AbsAC1 (concentration giving Tm-shift threshold 1.0) is 2.95 µM.

These data come from PubChem BioAssay AID687022 (Broad Institute, 2013).
